Experimental data: patent US11667602B2, “Compounds and their use” (AstraZeneca AB, priority 2020, dated 2023)

Molecular target: T1, human RXFP1 (Homo sapiens, UniProt Q9HBX9)
T1 sequence (Q9HBX9 1-757): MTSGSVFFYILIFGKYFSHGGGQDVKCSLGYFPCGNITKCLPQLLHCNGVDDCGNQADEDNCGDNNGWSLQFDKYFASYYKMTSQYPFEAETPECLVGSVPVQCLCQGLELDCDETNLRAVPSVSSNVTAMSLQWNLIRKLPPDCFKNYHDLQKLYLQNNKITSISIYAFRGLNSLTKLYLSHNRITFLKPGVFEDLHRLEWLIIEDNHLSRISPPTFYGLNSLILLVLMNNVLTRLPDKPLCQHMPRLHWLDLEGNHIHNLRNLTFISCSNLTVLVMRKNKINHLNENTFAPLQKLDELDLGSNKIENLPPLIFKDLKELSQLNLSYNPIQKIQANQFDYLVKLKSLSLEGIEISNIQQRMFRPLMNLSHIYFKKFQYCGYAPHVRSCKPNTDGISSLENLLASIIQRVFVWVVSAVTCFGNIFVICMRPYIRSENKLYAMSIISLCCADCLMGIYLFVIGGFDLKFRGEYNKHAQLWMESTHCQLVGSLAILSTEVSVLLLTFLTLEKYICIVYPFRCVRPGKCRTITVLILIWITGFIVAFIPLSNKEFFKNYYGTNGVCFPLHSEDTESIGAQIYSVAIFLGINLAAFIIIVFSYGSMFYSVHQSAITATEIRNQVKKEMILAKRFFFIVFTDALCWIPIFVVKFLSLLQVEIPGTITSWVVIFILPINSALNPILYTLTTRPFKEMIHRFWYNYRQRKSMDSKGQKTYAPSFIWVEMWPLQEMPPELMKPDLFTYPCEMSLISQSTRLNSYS
Experiment: RXFP1 Hu cAMP (Test A)
Type: cell-based
Parameters: expressed in transfected cells; host or cells: Jump-In T-REx CHO-K1 cells (ThermoFisher), induced with 10 ng/ml doxycycline for 24 h
Conditions: RXFP1 Hu cAMP; for EC50: read-out: Test A EC50
Method in brief: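 Doxycycline-induced (10 ng/ml, 24 h) CHO-K1 cells stably expressing human RXFP1; cAMP read by competitive HTRF after 2 h at room temperature, with 0.5 mM IBMX final.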

Molecule | Test A Sinf [%] | EC50 [nM]
COc1cc(F)c(OC2CCC(C)(C(=O)O)CC2)cc1C(=O)NC1COCC1C(=O)NCC1(C)CCC1 [Example 576, (1R,4s)-4-(2-Fluoro-4-methoxy-5-(((3S*,4R*)-4-(((1-methylcyclobutyl)methyl)carbamoyl)tetrahydrofuran-3-yl)carbamoyl)phenoxy)-1-methylcyclohexane-1-carboxylic acid] | 118 | 
COc1cc(F)c(O[C@H]2CC[C@@](C)(C(=O)O)CC2)cc1C(=O)N[C@@H]1[C@H]2CC[C@H](C2)[C@@H]1C(=O)NCCC(F)(F)F [Example 596] | 105 | 
(1R,4s)-4-(2-Cyano-4-fluoro-5-(((2S*,3R*)-3-(((1-methylcyclobutyl)methyl)carbamoyl)bicyclo[2.2.2]octan-2-yl)carbamoyl)phenoxy)-1-methylcyclohexane-1-carboxylic acid [Example 589] | 83 | 
COc1cc(F)c(O[C@H]2CC[C@@](C)(C(=O)O)CC2)cc1C(=O)N[C@@H]1COC[C@@H]1C(=O)Nc1cccc(S(=O)(=O)C(F)(F)F)c1 (racemic) [Example 342] | 132 | 550
COc1cc(C#N)c(O[C@H]2CC[C@@](C)(C(=O)O)CC2)cc1C(=O)N[C@@H]1[C@H]2CC[C@H](C2)[C@@H]1C(=O)NCCCF [Example 135] | 76 | 
COc1cc(F)c(-c2cncc(C(=O)O)c2)cc1C(=O)N[C@H]1[C@@H](C(=O)Nc2cccc(S(=O)(=O)C(F)(F)F)c2)[C@@H]2C=C[C@H]1C2 (racemic) [Example 228] | 110 | 
COc1cc(F)c(O[C@H]2CC[C@@H](C(=O)OC)CC2)cc1C(=O)N[C@@H]1C[C@H](O)C[C@@H]1C(=O)Nc1cccc(S(=O)(=O)C(F)(F)F)c1 (racemic) [Example 496] |  | > 40000
COc1cc(F)c(O[C@H]2CC[C@@](C)(C(=O)O)CC2)cc1C(=O)N[C@@H]1[C@H]2CC[C@H](C2)[C@@H]1C(=O)NCC(C)(C)OC [Example 610] | 105 | 
COc1cc(F)c(O[C@H]2CC[C@@](C)(C(=O)O)CC2)cc1C(=O)NC1CC(OC)CC1C(=O)NCC(C)(C)C (single isomer, unassigned) [Example 546, (1R,4s)-4-(2-Fluoro-4-methoxy-5-(((1S*,2R*,4R*)-4-methoxy-2-(neopentylcarbamoyl)cyclopentyl)carbamoyl)phenoxy)-1-methylcyclohexane-1-carboxylic acid] |  | > 40000
COc1cc(F)c(OC2CCC(CO)(C(=O)O)CC2)cc1C(=O)NC1CC(OC)CC1C(=O)NCC1(C)CCC1 (single isomer, unassigned) [Example 550, (1R,4s)-4-(2-Fluoro-4-methoxy-5-(((1S*,2R*,4R*)-4-methoxy-2-(((1-methylcyclobutyl)methyl)carbamoyl)cyclopentyl)carbamoyl)phenoxy)-1-(hydroxymethyl)cyclohexane-1-carboxylic acid] |  | > 40000
Cn1ncc2cc(C(=O)N[C@@H]3[C@H]4CC[C@H](C4)[C@@H]3C(=O)NCC3(C)CCC3)cc(O[C@H]3CC[C@@](C)(C(=O)O)CC3)c21 [Example 378] |  | > 2500
COc1cc(F)c(-c2ccc(C(=O)O)nc2)cc1C(=O)N[C@H]1[C@@H](C(=O)Nc2cccc(S(=O)(=O)C(F)(F)F)c2)[C@@H]2C=C[C@H]1C2 (racemic) [Example 274, rac-5-(2-Fluoro-4-methoxy-5-(((1R,2R,3S,4S)-3-((3-((trifluoromethyl)sulfonyl)phenyl)carbamoyl)bicyclo[2.2.1]hept-5-en-2-yl)carbamoyl)phenyl)picolinic acid] | 61 | 5700
(1R,4s)-4-(2-Fluoro-5-(((3S*,4R*)-4-((4-fluoro-3-(pentafluoro-λ6-sulfaneyl)phenyl)carbamoyl)tetrahydrofuran-3-yl)carbamoyl)-4-methoxyphenoxy)-1-methylcyclohexane-1-carboxylic acid [Example 565] | 113 | 

More lines, in order of falling EC50, values ahead:

Test A Sinf [%] | EC50 [nM] | Molecule
101 | 5400 | COc1cc(F)c(O[C@H]2CC[C@@](C)(C(=O)O)CC2)cc1C(=O)N[C@@H]1CCCO[C@@H]1C(=O)Nc1cccc(S(=O)(=O)C(F)(F)F)c1 [Example 357]
80 | 4000 | COc1cc(F)c(-c2ccc(C(=O)O)cc2)cc1C(=O)N[C@H]1[C@@H](C(=O)Nc2ccc(F)c(C#N)c2)[C@@H]2C=C[C@H]1C2 (racemic) [Example 309]
97 | 3900 | COc1cc(F)c(O[C@H]2CC[C@@](C)(C(=O)O)CC2)cc1C(=O)N[C@@H]1COC[C@@H]1C(=O)NCC1(C)CCC1 (racemic) [Example 350]
55 | 3300 | COc1cc(F)c(-c2c[nH]c(C(=O)O)c2)cc1C(=O)N[C@H]1[C@@H](C(=O)Nc2cccc(S(=O)(=O)C(F)(F)F)c2)[C@@H]2C=C[C@H]1C2 (racemic) [Example 229]
113 | 1800 | COc1cc(F)c(O[C@H]2CC[C@@](C)(C(=O)O)CC2)cc1C(=O)N[C@@H]1COCC[C@@H]1C(=O)Nc1ccc(F)c(S(F)(F)(F)(F)F)c1 (racemic) [Example 349]
94 | 830 | COc1cc(F)c(OC2CCCC(C(=O)O)C2)cc1C(=O)N[C@@H]1[C@H]2CC[C@H](C2)[C@@H]1C(=O)Nc1cccc(S(=O)(=O)C(F)(F)F)c1 (single isomer, unassigned) [Example 447]
107 | 700 | COc1cc(F)c(OC2CCC(CO)(C(=O)O)CC2)cc1C(=O)NC1CC(OC)CC1C(=O)NCC1(C)CCC1 (single isomer, unassigned) [Example 551, (1R,4s)-4-(2-Fluoro-4-methoxy-5-(((1S*,2R*,4R*)-4-methoxy-2-(((1-methylcyclobutyl)methyl)carbamoyl)cyclopentyl)carbamoyl)phenoxy)-1-(hydroxymethyl)cyclohexane-1-carboxylic acid]
93 | 690 | COc1cc(F)c(O[C@H]2CC[C@@](C)(C(=O)O)CC2)cc1C(=O)N[C@@H]1[C@H]2CC[C@H](C2)[C@@H]1C(=O)NCC1CC(F)(F)C1 [Example 620]
137 | 580 | COc1cc(C#N)c(O[C@H]2CC[C@@](C)(C(=O)O)CC2)cc1C(=O)Nc1cc(C)ccc1C(=O)NCc1cccc(F)c1 [Example 166, (1s,4s)-4-(2-Cyano-5-((2-((3-fluorobenzyl)carbamoyl)-5-methylphenyl)carbamoyl)-4-methoxyphenoxy)-1-methylcyclohexane-1-carboxylic acid]
136 | 190 | COc1cc(C#N)c(O[C@H]2CC[C@@](C)(C(=O)O)CC2)cc1C(=O)Nc1cc(C)ccc1C(=O)N[C@H](C)C(C)C [Example 170]
92 | 160 | COc1cc(F)c(O[C@H]2CC[C@@](C)(C(=O)O)CC2)cc1C(=O)N[C@@H]1[C@H]2CC[C@H](C2)[C@@H]1C(=O)N[C@H]1CCCN(S(=O)(=O)C(F)(F)F)C1 [Example 607]
98 | 130 | COc1cc(C#N)c(O[C@H]2CC[C@@](C)(C(=O)O)CC2)cc1C(=O)N[C@@H]1[C@H]2CC[C@H](C2)[C@@H]1C(=O)NC1CCCCC1 [Example 121]
100 | 110 | CCCCCCNC(=O)[C@H]1[C@@H]2CC[C@@H](C2)[C@H]1NC(=O)c1cc(O[C@H]2CC[C@@](C)(C(=O)O)CC2)c(C#N)cc1OC [Example 117]
99 | 110 | COCCOc1cc(F)c(O[C@H]2CC[C@@](C)(C(=O)O)CC2)cc1C(=O)N[C@@H]1[C@H]2CC[C@H](C2)[C@@H]1C(=O)NCC1(C)CCC1 [Example 391]
99 | 94 | COc1cc(F)c(O[C@H]2CC[C@@](C)(C(=O)O)CC2)cc1C(=O)N[C@@H]1[C@H]2CC[C@H](C2)[C@@H]1C(=O)NC(C)(C)C(F)(F)F [Example 603]
118 | 88 | COc1cc(C#N)c(O[C@H]2CC[C@@](C)(C(=O)O)CC2)cc1C(=O)Nc1cc(Cl)ccc1C(=O)NCC1CCCCCC1 [Example 157, (1s,4s)-4-(5-((5-Chloro-2-((cycloheptylmethyl)carbamoyl)phenyl)carbamoyl)-2-cyano-4-methoxyphenoxy)-1-methylcyclohexane-1-carboxylic acid]
99 | 84 | COc1cc(C#N)c(O[C@H]2CC[C@@](C)(C(=O)O)CC2)cc1C(=O)N[C@@H]1[C@H]2CC[C@H](C2)[C@@H]1C(=O)NC[C@@H](F)c1ccccc1 [Example 131]
102 | 29 | COc1cc(C#N)c(O[C@H]2CC[C@@](C)(C(=O)O)CC2)cc1C(=O)N[C@@H]1[C@H]2CC[C@H](C2)[C@@H]1C(=O)NCc1cc(C)ccc1C [Example 136]
